The source of these data is ChEMBL document CHEMBL3046395, “Synthesis and pharmacological investigation of novel 3-(benzyl)-2-substituted amino-3H-quinazolin-4-ones as analgesic and anti-inflammatory agents” (Med Chem Res, 2008).

Data set [1] has as its system Mus musculus. Put plainly: Analgesic activity in Mus musculus Wistar albino (mouse) at 10 mg/kg, po after 1 hr by tail-flick test (reference value: 6 +/- 0.49%). It counts as functional.
Data set [2] has as its system Rattus norvegicus. Put plainly: Anti-inflammatory activity in Rattus norvegicus (rat) assessed as inhibition of carrageenan-induced paw edema at 20 mg/kg, po measured at 30 min post carrageenan-challenge (reference value: 5.1 +/- 0.29%). The class given is functional. The settings on record: 0.5 h. A general note: The carrageenan paw model is a standard test of acute inflammation.

Data set [3] deals with Mus musculus. Description: Analgesic activity in Mus musculus Wistar albino (mouse) at 20 mg/kg, po after 1 hr by tail-flick test (reference value: 6 +/- 0.49%). It counts as functional. (Hot-plate and tail-flick tests time the reaction to a heat stimulus.)
For data set [4], the system named is Rattus norvegicus. Put plainly: Anti-inflammatory activity in Rattus norvegicus (rat) assessed as inhibition of carrageenan-induced paw edema at 10 mg/kg, po measured at 30 min post carrageenan-challenge (reference value: 5.1 +/- 0.29%). The class given is functional. The settings on record: 0.5 h.
For data set [5], the system named is Rattus norvegicus. Description: Gastrointestinal toxicity in Rattus norvegicus Wistar albino (rat) assessed as ulcer index at 20 mg/kg, ip administered QD for 3 days measured on day 4 (reference value: 0.15 +/- 0.32). The class given is organism-based. Further details: dose 20 mg/kg, route intraperitoneal. The settings on record: in vivo, 72 h.
Data set [6] deals with Rattus norvegicus. Description: Anti-inflammatory activity in Rattus norvegicus (rat) assessed as inhibition of carrageenan-induced paw edema at 10 mg/kg, po measured at 1 hr post carrageenan-challenge (reference value: 6.1 +/- 0.27%). It counts as functional.
The test system of data set [7] is Rattus norvegicus. Description: Anti-inflammatory activity in Rattus norvegicus (rat) assessed as inhibition of carrageenan-induced paw edema at 10 mg/kg, po measured at 2 hr post carrageenan-challenge (reference value: 5.7+/- 0.32%). The class given is functional.
The subject of data set [8] is Rattus norvegicus. Put plainly: Anti-inflammatory activity in Rattus norvegicus (rat) assessed as inhibition of carrageenan-induced paw edema at 10 mg/kg, po measured at 3 hr post carrageenan-challenge (reference value: 3.2 +/- 0.93%). It counts as functional.
Data set [9] concerns Rattus norvegicus. Put plainly: Anti-inflammatory activity in Rattus norvegicus (rat) assessed as inhibition of carrageenan-induced paw edema at 20 mg/kg, po measured at 3 hr post carrageenan-challenge (reference value: 3.2 +/- 0.93%). It counts as functional.
Data set [10] relates to Rattus norvegicus. Description: Anti-inflammatory activity in Rattus norvegicus (rat) assessed as inhibition of carrageenan-induced paw edema at 20 mg/kg, po measured at 1 hr post carrageenan-challenge (reference value: 6.1 +/- 0.27%). It counts as functional.
The test system of data set [11] is Mus musculus. Description: Analgesic activity in Mus musculus Wistar albino (mouse) at 20 mg/kg, po after 2 hr by tail-flick test (reference value: 4 +/- 0.59%). It counts as functional.
Data set [12] has as its system Mus musculus. Put plainly: Analgesic activity in Mus musculus Wistar albino (mouse) at 20 mg/kg, po after 3 hr by tail-flick test (reference value: 4 +/- 0.91%). The class given is functional.
Data set [13] deals with Mus musculus. Description: Analgesic activity in Mus musculus Wistar albino (mouse) at 10 mg/kg, po after 2 hr by tail-flick test (reference value: 4 +/- 0.59%). The class given is functional.
For data set [14], the system named is Mus musculus. Description: Analgesic activity in Mus musculus Wistar albino (mouse) at 10 mg/kg, po after 3 hr by tail-flick test (reference value: 4 +/- 0.91%). It counts as functional.
The test system of data set [15] is Mus musculus. Put plainly: Analgesic activity in Mus musculus Wistar albino (mouse) at 10 mg/kg, po after 30 min by tail-flick test (reference value: 2 +/- 0.35%). The class given is functional.
For data set [16], the system named is Mus musculus. Description: Analgesic activity in Mus musculus Wistar albino (mouse) at 20 mg/kg, po after 30 min by tail-flick test (reference value: 2 +/- 0.35%). It counts as functional.
Data set [17] deals with Rattus norvegicus. Put plainly: Anti-inflammatory activity in Rattus norvegicus (rat) assessed as inhibition of carrageenan-induced paw edema at 20 mg/kg, po measured at 2 hr post carrageenan-challenge (reference value: 5.7+/- 0.32%). The class given is functional.

Usually inhibition in vivo stands for the relative decrease from the control value, in per cent. For the compound `CC/C(C)=N/Nc1nc2ccccc2c(=O)n1Cc1ccccc1`, the Activity was found to be 62% in the data set with Mus musculus [1]; 73% in the data set with Mus musculus [3]; 76% in the data set with Mus musculus [11]; 45% in the data set with Mus musculus [12]; 65% in the data set with Mus musculus [13]; 35% in the data set on Mus musculus [14]. Moreover, the Activity with Mus musculus [15] is given as 59%; in the data set on Mus musculus [16] it was 71%. Also, the inhibition in vivo at 20 mg/kg is 50% with Rattus norvegicus [2], 39% in the data set with Rattus norvegicus [9], 59% in the data set on Rattus norvegicus [10] and 60% with Rattus norvegicus [17]. Moreover, the inhibition in vivo at 10 mg/kg was 45% in the data set with Rattus norvegicus [4], 48% with Rattus norvegicus [6], 51% in the data set with Rattus norvegicus [7] and 26% in the data set on Rattus norvegicus [8]. The UI in the data set on Rattus norvegicus [5] is on record as 0.53.

For the compound `CCC(CC)=NNc1nc2ccccc2c(=O)n1Cc1ccccc1`, the Activity in the data set with Mus musculus [1] is recorded as 69%; with Mus musculus [3] it was 79%; in the data set on Mus musculus [11], 81%; with Mus musculus [12], 50%; with Mus musculus [13], 72%; in the data set with Mus musculus [14] it was 41%. Further, the Activity amounted to 63% with Mus musculus [15] and 74% in the data set with Mus musculus [16]. For the same compound, the inhibition in vivo at 20 mg/kg in the data set with Rattus norvegicus [2] came to 59%; with Rattus norvegicus [9], 41%; in the data set with Rattus norvegicus [10], 68%; in the data set on Rattus norvegicus [17] it was 70%. Further, the inhibition in vivo at 10 mg/kg with Rattus norvegicus [4] amounted to 49%; in the data set on Rattus norvegicus [6], 53%; with Rattus norvegicus [7] it was 56%; in the data set with Rattus norvegicus [8], 30%. For the same compound, in the data set with Rattus norvegicus [5], the UI was 0.5.

Take `CCC/C(C)=N/Nc1nc2ccccc2c(=O)n1Cc1ccccc1`: the Activity was found to be 60% with Mus musculus [1]; 77% in the data set with Mus musculus [3]; 79% in the data set with Mus musculus [11]; 48% in the data set on Mus musculus [12]; 67% in the data set on Mus musculus [13]; 40% with Mus musculus [14]. Besides, the Activity in the data set with Mus musculus [15] amounted to 58%; with Mus musculus [16] it was 67%. Moreover, the inhibition in vivo at 20 mg/kg worked out at 58% in the data set on Rattus norvegicus [2], 39% in the data set on Rattus norvegicus [9], 65% in the data set with Rattus norvegicus [10] and 67% in the data set on Rattus norvegicus [17]. The inhibition in vivo at 10 mg/kg was 47% in the data set on Rattus norvegicus [4], 51% in the data set on Rattus norvegicus [6], 53% with Rattus norvegicus [7] and 30% in the data set on Rattus norvegicus [8]. In addition, in the data set on Rattus norvegicus [5], the UI turned out to be 0.48.

As for `O=C([O-])Cc1ccccc1Nc1c(Cl)cccc1Cl.[Na+]` [DICLOFENAC SODIUM], the Activity is given as 43% in the data set on Mus musculus [1]; 55% with Mus musculus [3]; 62% in the data set on Mus musculus [11]; 39% in the data set on Mus musculus [12]; 45% in the data set on Mus musculus [13]; 33% in the data set on Mus musculus [14]. The values for the Activity with Mus musculus [15] and in the data set with Mus musculus [16] were 37% and 46%, respectively. Also, the inhibition in vivo at 20 mg/kg in the data set on Rattus norvegicus [2] amounted to 45%; in the data set with Rattus norvegicus [9], 42%; with Rattus norvegicus [10], 52%; in the data set with Rattus norvegicus [17], 60%. Besides, the inhibition in vivo at 10 mg/kg is 32% with Rattus norvegicus [4], 38% in the data set on Rattus norvegicus [6], 39% in the data set with Rattus norvegicus [7] and 33% in the data set on Rattus norvegicus [8]. For the same compound, the UI in the data set on Rattus norvegicus [5] came out at 1.65.
